PMC10910063, “Helical domain of hGBP3 cannot stimulate the second phosphate cleavage of GTP” (The Journal of Biological Chemistry, 2024)

Molecular target: T1, hGBP1^311 (Homo sapiens, UniProt P32455)
T1 construct: gene GBP1; truncated, without the helical domain; purified as previously reported
T1 sequence (P32455 1-311): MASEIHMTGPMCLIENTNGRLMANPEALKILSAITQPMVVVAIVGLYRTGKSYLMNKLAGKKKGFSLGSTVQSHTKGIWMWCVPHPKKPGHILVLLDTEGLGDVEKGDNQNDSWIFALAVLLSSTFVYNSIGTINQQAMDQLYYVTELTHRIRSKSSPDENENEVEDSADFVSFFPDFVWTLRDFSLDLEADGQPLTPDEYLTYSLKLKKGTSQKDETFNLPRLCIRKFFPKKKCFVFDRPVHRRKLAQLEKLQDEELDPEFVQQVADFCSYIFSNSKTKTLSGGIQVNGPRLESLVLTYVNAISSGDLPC
Test: radiolabelled [α-32P]GTP, thin-layer chromatography
Type: biochemical
Details: Tris pH 7.5, 5 mM MgCl2, 37 °C

Nc1nc2c(ncn2[C@@H]2O[C@H](COP(=O)(O)OP(=O)(O)OP(=O)(O)O)[C@@H](O)[C@H]2O)c(=O)[nH]1 [GTP]
radiolabelled [α-32P]GTP, thin-layer chromatography: the deletion of the helical domain of hGBP1 significantly reduced GMP production
